Patent US20140004122A1, “METHODS FOR TREATING OR PREVENTING CHOLESTEROL RELATED DISORDERS” (AMGEN INC., priority 2011, published 2014)

Tested on: hypercholesterolemic subjects with a 10 year Framingham risk score of 10% or less
Assay: 12 week monotherapy dose-ranging study (Example 24)
Type: in vivo, human
Protocol: Ezetimibe was not blinded. The end-of-study visit and the last estimation of lipids was at week 12 for subjects on Q4W IP schedule or on ezetimibe and week 14 for subjects on Q2W IP schedule.
Males and females, ≧18 to ≦75 years of age, were eligible for this study. Fasting LDL-C was ≧100 mg/dL (2.6 mmol/L) and <190 mg/dL (4.9 mmol/L) and fasting triglycerides ≦400 mg/dL (4.5 mmol/L) by central laboratory at screening.
The primary endpoint was the percent change from baseline in LDL-C at week 12. Secondary endpoints included percent changes in apolipoprotein B (ApoB), lipoprotein (a) (Lp(a)), and in the ratio of total cholesterol to high-density lipoprotein (HDL)-C. Tolerability and safety were also evaluated.

In the case of O=C1[C@H](CC[C@H](O)c2ccc(F)cc2)[C@@H](c2ccc(O)cc2)N1c1ccc(F)cc1 [Ezetimibe, ezetimibe, reference compound], the “percent change from baseline in LDL-C” value (week 12, final data, ezetimibe QD PO) is reported as 14% and the “Least squares mean percent change from baseline (%) in LDL-C” value (week 12, Ezetimibe QD (N = 45)) is reported as −14.26%.
